Results taken from patent US20220056014A1, “PHENYLPYRROLIDINE COMPOUND AND USE THEREOF” (WUHAN HUMANWELL INNOVATIVE DRUG RESEARCH AND DEVELOPMENT …, priority 2018, published 2022).

biological target: T1, PDE4B (Homo sapiens, UniProt Q07343); assay: PDE4B enzyme activity assay (PDE-Glo Phosphodiesterase Assay Kit); assay type: biochemical
T1 construct: purchased Enzo Life Sciences BML-SE522-0020
Method: For the previously synthesized compounds, the inhibitory activity of the compounds against PDE4B and against PDE4D was tested by using PDE-Glo Phosphodiesterase Assay Kit (promega, V1361). In short, in accordance with the instructions of the kit, a concentrated stock solution (10 mM) the compound to be tested was first prepared with DMSO solvent, and the concentrated stock solution was then diluted into 10× working solutions with a Reaction buffer provided in the kit. With the Reaction buffer, on ice, PDE4B enzyme (Enzo Life Sciences, BML-SE522-0020) was diluted to a concentration of 1 ng/μl to obtain a PDE4B enzyme working solution, and PDE4D enzyme (Enzo Life Sciences, BML-SE523-0020) was diluted to a concentration of 4 ng/μl to obtain a PDE4D enzyme working solution. 1.5 μl of the PDE4B working solution (or PDE4D working solution) and 1 μl of the compound working solution were added to wells of 384-well plate (Corning, CLS3707), and incubated with shaking at room temperature for 5 min, followed by adding 2.5 μl of cAMP (in Reaction buffer, 2 μM) per well, incubating with shaking at room temperature for 20 min. 2.5 μl/well of 1× Termination Buffer, and then 2.5 μl/well of 1× Detection Buffer were added, and further incubated with shaking at room temperature for 20 min. 10 μl/well of 1× Kinase-Glo was added, and the plate was incubated with shaking at room temperature for 10 min, and bioluminescence was measured with PheraStar instrument. The experimental results were plotted with GraphPad Prism software, and fitted to calculate IC50 of each compound.

T1 sequence (Q07343 whole entry): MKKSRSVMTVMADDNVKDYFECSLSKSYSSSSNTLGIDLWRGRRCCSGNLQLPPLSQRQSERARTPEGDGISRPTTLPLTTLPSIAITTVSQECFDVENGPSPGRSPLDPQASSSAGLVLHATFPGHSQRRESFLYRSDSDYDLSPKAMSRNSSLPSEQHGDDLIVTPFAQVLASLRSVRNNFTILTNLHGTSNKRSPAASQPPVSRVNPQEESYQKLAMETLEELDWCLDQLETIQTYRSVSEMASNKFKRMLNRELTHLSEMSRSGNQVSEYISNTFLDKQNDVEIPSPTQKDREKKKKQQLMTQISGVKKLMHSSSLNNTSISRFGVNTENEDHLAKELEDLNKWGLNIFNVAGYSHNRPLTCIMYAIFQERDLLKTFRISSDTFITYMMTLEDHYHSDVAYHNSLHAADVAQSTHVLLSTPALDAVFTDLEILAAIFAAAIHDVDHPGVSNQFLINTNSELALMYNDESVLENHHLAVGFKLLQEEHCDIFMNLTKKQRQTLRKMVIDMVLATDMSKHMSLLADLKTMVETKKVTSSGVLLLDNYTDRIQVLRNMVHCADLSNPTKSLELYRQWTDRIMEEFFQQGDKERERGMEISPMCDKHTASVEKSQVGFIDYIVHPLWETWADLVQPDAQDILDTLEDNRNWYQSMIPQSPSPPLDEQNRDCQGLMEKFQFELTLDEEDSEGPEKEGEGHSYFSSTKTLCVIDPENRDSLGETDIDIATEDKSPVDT

SMILES | inhibition of PDE4B (in words) | selective inhibitory activity against PDE4B versus PDE4D, compared with the positive control compound (in words) | IC50 [nM]
COc1ccc([C@@H]2CN(C(=O)[C@@H](O)CO)C[C@@]2(C)[C@@H](C)O)cc1OC1CN(c2ccc(C#N)c(C)n2)C1 [Compound 013, 6-(3-(5-((3S,4S)-1-((S)-2,3-dihydroxypropanoyl)-4-((R)-1-hydroxyethyl)-4-methylpyrrolidin-3-yl)-2-methoxyphenoxy)azetidin-1-yl)-2-methylnicotinonitrile] | effectively inhibit PDE4B | significantly higher than that control compound | –
COc1ccc([C@@H]2CN(C(=O)[C@@H](O)CO)C[C@@]2(C)[C@@H](C)O)cc1OC1CN(c2ncc(C)cn2)C1 [Compound 016, (S)-2,3-dihydroxy-1-((3S,4S)-3-((R)-1-hydroxyethyl)-4-(4-methoxy-3-((1-(5-methylpyrimidin-2-yl)azetidin-3-yl)oxy)phenyl)-3-methylpyrrolidin-1-yl)propan-1-one] | effectively inhibit PDE4B | significantly higher than that control compound | –
CCc1cnc(N2CC(Oc3cc([C@@H]4CN(C(=O)[C@@H](O)CO)C[C@@]4(C)[C@@H](C)O)ccc3OC)C2)nc1 [Compound 017, (S)-1-((3S,4S)-4-(3-((1-(5-ethylpyrimidin-2-yl)azetidin-3-yl)oxy)-4-methoxyphenyl)-3-((R)-1-hydroxyethyl)-3-methylpyrrolidin-1-yl)-2,3-dihydroxypropan-1-one] | effectively inhibit PDE4B | significantly higher than that control compound | –
COc1ccc([C@@H]2CN(C(=O)[C@@H](O)CO)C[C@@]2(C)[C@@H](C)O)cc1OC1CN(c2ncc(Cl)cn2)C1 [Compound 018, (S)-1-((3S,4S)-4-(3-((1-(5-chloropyrimidin-2-yl)azetidin-3-yl)oxy)-4-methoxyphenyl)-3-((R)-1-hydroxyethyl)-3-methylpyrrolidin-1-yl)-2,3-dihydroxypropan-1-one] | effectively inhibit PDE4B | significantly higher than that control compound | –
COc1ccc([C@@H]2CN(C(=O)[C@@H](O)CO)C[C@@]2(C)[C@@H](C)O)cc1OC1CN(c2cnc(C#N)cn2)C1 [Compound 019, 5-(3-(5-((3S,4S)-1-((S)-2,3-dihydroxypropanoyl)-4-((R)-1-hydroxyethyl)-4-methylpyrrolidin-3-yl)-2-methoxyphenoxy)azetidin-1-yl)pyrazine-2-carbonitrile] | – | – | 1.87
CCc1ccc(N2CC(Oc3cc([C@@H]4CN(C(=O)[C@@H](O)CO)C[C@@]4(C)[C@@H](C)O)ccc3OC)C2)nc1C [Compound 029, (S)-1-((3S,4S)-4-(3-((1-(5-ethyl-6-methylpyridin-2-yl)azetidin-3-yl)oxy)-4-methoxyphenyl)-3-((R)-1-hydroxyethyl)-3-methylpyrrolidin-1-yl)-2,3-dihydroxypropan-1-one] | effectively inhibit PDE4B | significantly higher than that control compound | –
CCc1cnc(N2CC(Oc3cc([C@@H]4CN(C(=O)[C@@H](O)CO)C[C@@]4(C)[C@@H](C)O)ccc3OC)C2)cc1C [Compound 030, (S)-1-((3S,4S)-4-(3-((1-(5-ethyl-4-methylpyridin-2-yl)azetidin-3-yl)oxy)-4-methoxyphenyl)-3-((R)-1-hydroxyethyl)-3-methylpyrrolidin-1-yl)-2,3-dihydroxypropan-1-one] | effectively inhibit PDE4B | significantly higher than that control compound | –
